Reference: patent publication US5135936A, “Isomers of 1-azabicyclo[2.2.2]oct-3-yl methyl 1,4-dihydro-2,6-dimethyl-4-(3-nitrophenyl)-3,5-pyridinediacarboxylic and their use as calcium antagonists” (Marion Merrell Dow Inc., priority 1991, dated 1992)
Where a name gives a salt, the structure may show the parent alone.

How the values were obtained:
[1] = in words; cited from earlier work
[2] = tested on: spontaneously hypertensive rats; details: rank among the enantiomers, in words; cited from earlier work
[3] = target: T1, Guinea Pig Ileum (Cavia porcellus, UniProt O35505); test: Calcium Channel Antagonist Activity in Guinea Pig Isolated Ileal Smooth Muscle (inhibition of Ca++ evoked contractions); details: concentration producing a two-fold rightward shift in the control Ca++ curve; KCl-depolarized (80 mM) longitudinal smooth muscle
T1 construct: The longitudinal smooth muscle is carefully separated from the underlying circular muscle layer; from tissue; host or cells: guinea pig ileum (terminal 10 cm discarded), isolated longitudinal smooth muscle
T1 sequence (O35505 whole entry): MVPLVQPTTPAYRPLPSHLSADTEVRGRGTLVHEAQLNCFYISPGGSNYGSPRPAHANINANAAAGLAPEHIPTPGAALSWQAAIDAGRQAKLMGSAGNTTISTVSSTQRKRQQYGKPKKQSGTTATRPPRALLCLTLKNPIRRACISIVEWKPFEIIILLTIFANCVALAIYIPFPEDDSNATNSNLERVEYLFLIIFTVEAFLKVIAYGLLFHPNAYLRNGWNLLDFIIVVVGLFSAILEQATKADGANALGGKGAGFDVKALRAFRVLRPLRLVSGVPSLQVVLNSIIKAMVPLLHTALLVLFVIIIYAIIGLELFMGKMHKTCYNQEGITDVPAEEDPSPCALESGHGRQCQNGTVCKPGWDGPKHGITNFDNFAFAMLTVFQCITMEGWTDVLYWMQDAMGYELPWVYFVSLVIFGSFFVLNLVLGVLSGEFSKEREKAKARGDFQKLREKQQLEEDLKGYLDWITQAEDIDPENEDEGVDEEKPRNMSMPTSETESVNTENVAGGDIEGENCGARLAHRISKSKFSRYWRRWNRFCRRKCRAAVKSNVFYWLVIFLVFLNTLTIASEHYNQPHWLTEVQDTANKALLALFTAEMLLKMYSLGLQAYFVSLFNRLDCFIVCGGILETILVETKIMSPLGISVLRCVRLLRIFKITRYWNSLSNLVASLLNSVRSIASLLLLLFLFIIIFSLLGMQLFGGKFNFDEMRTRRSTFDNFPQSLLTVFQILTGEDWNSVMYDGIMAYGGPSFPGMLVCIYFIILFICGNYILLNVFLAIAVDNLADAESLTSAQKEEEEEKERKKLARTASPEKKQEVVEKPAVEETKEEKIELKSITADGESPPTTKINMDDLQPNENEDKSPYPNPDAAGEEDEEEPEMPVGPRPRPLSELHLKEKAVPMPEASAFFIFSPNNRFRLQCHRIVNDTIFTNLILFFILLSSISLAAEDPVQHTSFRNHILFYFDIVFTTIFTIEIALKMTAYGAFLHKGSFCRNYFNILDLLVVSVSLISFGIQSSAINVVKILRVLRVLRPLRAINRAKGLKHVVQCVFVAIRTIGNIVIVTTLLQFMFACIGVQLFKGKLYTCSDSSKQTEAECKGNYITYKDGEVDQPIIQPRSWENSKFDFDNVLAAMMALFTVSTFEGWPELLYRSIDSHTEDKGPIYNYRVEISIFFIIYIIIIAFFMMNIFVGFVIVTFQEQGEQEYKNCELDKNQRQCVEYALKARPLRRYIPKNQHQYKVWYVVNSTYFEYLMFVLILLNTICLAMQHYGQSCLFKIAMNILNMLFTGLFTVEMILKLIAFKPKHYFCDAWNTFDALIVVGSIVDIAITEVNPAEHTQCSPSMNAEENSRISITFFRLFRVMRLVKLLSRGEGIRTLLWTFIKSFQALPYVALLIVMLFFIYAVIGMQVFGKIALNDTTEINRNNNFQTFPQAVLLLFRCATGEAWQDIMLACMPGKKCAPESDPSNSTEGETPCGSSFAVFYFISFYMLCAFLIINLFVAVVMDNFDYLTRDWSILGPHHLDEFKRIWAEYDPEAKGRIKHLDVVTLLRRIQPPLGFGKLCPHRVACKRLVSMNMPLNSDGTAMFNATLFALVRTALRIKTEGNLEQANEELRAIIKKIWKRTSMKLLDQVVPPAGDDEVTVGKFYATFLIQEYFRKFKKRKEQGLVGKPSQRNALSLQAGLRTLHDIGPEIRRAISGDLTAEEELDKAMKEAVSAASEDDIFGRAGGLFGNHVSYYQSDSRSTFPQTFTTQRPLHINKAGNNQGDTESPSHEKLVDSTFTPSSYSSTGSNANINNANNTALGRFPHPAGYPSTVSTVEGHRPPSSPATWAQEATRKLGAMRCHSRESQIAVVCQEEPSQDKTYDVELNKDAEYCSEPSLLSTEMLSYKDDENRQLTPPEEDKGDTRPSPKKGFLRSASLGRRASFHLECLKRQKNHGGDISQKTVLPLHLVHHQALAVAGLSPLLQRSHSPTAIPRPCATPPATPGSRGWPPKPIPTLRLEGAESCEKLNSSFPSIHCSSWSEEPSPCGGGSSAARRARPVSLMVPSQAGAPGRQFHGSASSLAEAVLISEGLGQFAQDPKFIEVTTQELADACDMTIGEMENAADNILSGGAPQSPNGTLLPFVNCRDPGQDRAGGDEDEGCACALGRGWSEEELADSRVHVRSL
From the text: Calcium Channel Antagonist Activity in Guinea Pig Isolated Ileal Smooth Muscle
Male albino guinea pigs are sacrificed by stunning and exsanguination. The abdominal cavity is opened and the small intestine is removed, with about 10 cm of the terminal ileum being discarded. The tissue is placed in a dish containing Tyrode's solution of the following composition (in mM): NaCl 136.90; KCl 2.68; NaHCO3 11.90; NaH2 PO4 0.36; MgCl2 0.98; CaCl2 1.77; dextrose 5.55 and cut into three to four segments. A glass rod (6 mm diameter) is carefully inserted into the lumen of each segment and excess connective tissue or fat is removed. The longitudinal smooth muscle is carefully separated from the underlying circular muscle layer by gently stroking a moist cotton swab on a tangent to shallow, longitudinal incisions made parallel to the mesenteric attachment. Using gentle traction, and taking care to keep the segment moist at all times, the preparation is stripped from the remaining length of the ileal segment (Paton, W. D. M.; Zar, M. A.; J. Physiol. 1968, 194, 13.)
Each preparation is suspended in a 10 mL jacketed glass tissue bath containing Tyrode's solution maintained at 37° C. and gassed with 5% CO2 in O2. The preparation is attached by silk thread to a force-displacement transducer. […] The initial resting tension is adjusted to 0.5 g and the preparation equilibrated for 55 min prior to experimentation. At the end of this period, the bathing solution is replaced with Ca^++ free Tyrode's solution. This solution is prepared by omitting CaCl2. The preparation is washed four times in Ca^++ free Tyrode's solution to remove any Ca^++ remaining in the bath, and allowed to equilibrate for a further 20 min.
Experimental Protocol. Concentration-response curves to CaCl2 are obtained using the following procedure. Preparations are exposed to a depolarizing concentration of KCl (80 mM) for 6 min. At the end of this period CaCl2 is added to the bath cumulatively in the concentration range 0.2-8.0 mM. Successive additions of each Ca^++ concentration are carried out only when the previous response has reached a plateau. When the maximum response has been attained the bath is again washed (five times) with Ca^++ free buffer, and the preparation re-equilibrated for approximately 15 min. A second Ca^++ concentration-response curve is then obtained in the same manner. This second curve serves as control for that tissue.
Further curves are obtained in the presence of increasing concentrations of the test drugs. Where appropriate, the test drug is added to the bath immediately following addition of KCl, and 6 minutes later the concentration-response curve to Ca^++ is obtained. Each test preparation is exposed to three different concentrations of a test drug. […]

[4] = tested on: [3H]-yohimbine binding; details: rank among the enantiomers, in words; cited from earlier work
[5] = tested on: [3H]-nitrendipine binding; details: rank among the enantiomers, in words; cited from earlier work
[6] = target: [3H]-Nitrendipine Binding in Rat Cortical Membranes; test: Inhibition of [3H]-Nitrendipine Binding in Rat Cortical Membranes; details: rat cortex, room temperature, 90 min
Method: [3H]-Nitrendioine Bindino in Rat Cortex
Animals were decapitated and the cortical tissue was dissected, weighed and polytroned in about 20 volumes (w/v) of ice cold buffer ([…] TRIS HCl, pH 7.5). The tissue was then washed 3 times via centrifugation (20,000 rpm for 10 min at 4° C.) with subsequent resuspension in fresh buffer. The final pellet was resuspended prior to the assay at 22.5 mg/mL […]. Incubations were performed at room temperature for 90 min in each assay. These incubations were done in triplicate in a final assay volume of 2.0 mL. Non-specific binding was determined by the addition of 1 uM nifedipine for the [3H]-nitrendipine assay each to triplicate set of tubes. Reactions in each assay were terminated by filtration using a Brandel Cell Harvester followed by washing with ice cold buffer.
For preliminary evaluations in each assay, all compounds were examined at four log concentrations (1 nM-1 uM). full displacement curves were generated on all compounds showing inhibition of specific binding of 50% or greater at a 1 uM drug concentration. Standard reference compounds were included and evaluated in each assay. Analysis of data was done using both the EBDA Scafit program and HP-11C linear regression.

COC(=O)C1=C(C)NC(C)=C(C(=O)OC(C)C)[C@@H]1c1cccc2nonc12 [(R)-enantiomer of PN 200-110, isopropyl methyl 4-(2,1,3-benzoxadiazol-4-yl) -1,4-dihydro-2,6-dimethyl-3,5-pyridinedicarboxylate]
blood flow to the heart and brain [1]: increased
cardiac output [1]: increased
effect on blood pressure [1]: almost no effect
effect on heart rate [1]: almost no effect
potency in the subendocardium of the left ventricle [1]: surprisingly potent

COC(=O)C1=C(C)NC(C)=C(C(=O)OC(C)C)[C@H]1c1cccc2nonc12 [(S)-enantiomer of PN 200-110, isopropyl methyl 4-(2,1,3-benzoxadiazol-4-yl) -1,4-dihydro-2,6-dimethyl-3,5-pyridinedicarboxylate]
blood flow to the heart and brain [1]: increased
cardiac output [1]: increased
effect on blood pressure [1]: lowered
effect on heart rate [1]: lowered

COC(=O)C1=C(C)NC(C)=C(C(=O)O[C@H]2CCCN(Cc3ccccc3)C2)[C@H]1c1cccc([N+](=O)[O-])c1 [(S,S)-enantiomer of 1-benzyl-3-piperidinyl ester]
Ca++ channel blocking activity as determined by lowering of blood pressure in spontaneously hypertensive rats [2]: greatest

COC(=O)C1=C(C)NC(C)=C(C(=O)O[C@@H]2CN3CCC2CC3)[C@H]1c1cccc([N+](=O)[O-])c1 [(S,S)-I, (S,S)-1-Azabicyclo[2.2.2]oct-3-yl methyl 1,4-dihydro-2,6-dimethyl-4-(3-nitrophenyl)-3,5-pyridinedicarboxylate]
Kb [3]: 1620 nM

COC(=O)C1=C(C)NC(C)=C(C(=O)OCCN(C)C[C@H]2COc3ccccc3O2)[C@H]1c1cccc([N+](=O)[O-])c1 [2-[N-methyl-N-[(2,3-dihydro-1,4-benzodioxin-2-yl)methyl]amino]ethyl methyl 2,6-dimethyl-4-(3-nitrophenyl)-1,4-dihydropyridine-3,5-dicarboxylate]
inhibition of [3H]-yohimbine binding [4]: most potent

COC(=O)C1=C(C)NC(C)=C(C(=O)OCCN(C)C[C@@H]2COc3ccccc3O2)[C@@H]1c1cccc([N+](=O)[O-])c1 [2-[N-methyl-N-[(2,3-dihydro-1,4-benzodioxin-2-yl)methyl]amino]ethyl methyl 2,6-dimethyl-4-(3-nitrophenyl)-1,4-dihydropyridine-3,5-dicarboxylate]
inhibition of [3H]-nitrendipine binding [5]: most potent

COC(=O)C1=C(C)NC(C)=C(C(=O)O[C@H]2CN3CCC2CC3)[C@H]1c1cccc([N+](=O)[O-])c1 [(S,R)-I, (S,R)-1-azabicyclo[2.2.2]oct-3-yl methyl 1,4-dihydro-2,6-dimethyl-4-(3-nitrophenyl)-3,5pyridinedicarboxylate, hydrochloride]
Kb [3]: 3160 nM

COC(=O)C1=C(C)NC(C)=C(C(=O)O[C@H]2CCN(Cc3ccccc3)C2)[C@H]1c1cccc([N+](=O)[O-])c1 [(S,S)-enantiomer of 1-benzyl-3-pyrrolidinyl ester]
Ca++ channel blocking activity as determined by inhibition of [3H]-nitrendipine binding [5]: greatest

COC(=O)C1=C(C)NC(C)=C(C(=O)O[C@H]2CN3CCC2CC3)[C@H]1c1cccc([N+](=O)[O-])c1 [(R,S)-I, (R,S)-1-Azabicyclo[2.2.2]oct-3-yl methyl 1,4-dihydro-2,6-dimethyl-4-(3-nitrophenyl)3,5-pyridinedicarboxylate]
Ki [6]: 56 nM
Kb [3]: 174 nM

COC(=O)C1=C(C)NC(C)=C(C(=O)O[C@H]2CN3CCC2CC3)[C@@H]1c1cccc([N+](=O)[O-])c1 [(R,R)-I, (R,R)-1-Azabicyclo[2.2.2]oct-3-yl methyl 1,4-dihydro-2,6-dimethyl-4-(3-nitrophenyl)-3,5-pyridinedicarboxylate]
Ki [6]: 11 nM
Kb [3]: 34 nM
